# Reference: PubChem BioAssay AID2060896 (Molecular Pharmacology Branch, DTP, NCI, 2025)
# Tested on: 941728-121-R-J1-PDC complex spheroid viability
# Assay: Anticancer human tumor 941728-121-R-J1-PDC patient-derived lung adenocarcinoma cell line growth inhibition [RAS]
# Settings: for IC50: curve of first compound; for viability, T/C: stronger effect = lower value
# Method in brief: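 Tumour cells grown as complex spheroids with HUVEC endothelial cells and mesenchymal stem cells, treated with RAS pathway inhibitor combinations. Each agent spans half-log steps from near clinical Cmax, or 10 microM where Cmax is unknown.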
# [1] = second compound 0.000949 µM, first compound 0.0316 µM
# [2] = second compound 0.000949 µM, first compound 0.1 µM
# [3] = second compound 0.000949 µM, first compound 0.316 µM
# [4] = second compound 0.000949 µM, first compound 1 µM
# [5] = second compound 0.000949 µM, first compound 3.16 µM
# [6] = second compound 0.000949 µM, first compound 10 µM
# [7] = second compound 0.003 µM, first compound 0.0316 µM
# [8] = second compound 0.003 µM, first compound 0.1 µM
# [9] = second compound 0.003 µM, first compound 0.316 µM
# [10] = second compound 0.003 µM, first compound 1 µM
# [11] = second compound 0.003 µM, first compound 3.16 µM
# [12] = second compound 0.003 µM, first compound 10 µM
# [13] = second compound 0.00949 µM, first compound 0.0316 µM
# [14] = second compound 0.00949 µM, first compound 0.1 µM
# [15] = second compound 0.00949 µM, first compound 0.316 µM
# [16] = second compound 0.00949 µM, first compound 1 µM
# [17] = second compound 0.00949 µM, first compound 3.16 µM
# [18] = second compound 0.00949 µM, first compound 10 µM
# [19] = second compound 0.03 µM, first compound 0.0316 µM
# [20] = second compound 0.03 µM, first compound 0.1 µM
# [21] = second compound 0.03 µM, first compound 0.316 µM
# [22] = second compound 0.03 µM, first compound 1 µM
# [23] = second compound 0.03 µM, first compound 3.16 µM
# [24] = second compound 0.03 µM, first compound 10 µM
# [25] = second compound 0.0949 µM, first compound 0.0316 µM
# [26] = second compound 0.0949 µM, first compound 0.1 µM
# [27] = second compound 0.0949 µM, first compound 0.316 µM
# [28] = second compound 0.0949 µM, first compound 1 µM
# [29] = second compound 0.0949 µM, first compound 3.16 µM
# [30] = second compound 0.0949 µM, first compound 10 µM
# [31] = second compound 0.3 µM, first compound 0.0316 µM
# [32] = second compound 0.3 µM, first compound 0.1 µM
# [33] = second compound 0.3 µM, first compound 0.316 µM
# [34] = second compound 0.3 µM, first compound 1 µM
# [35] = second compound 0.3 µM, first compound 3.16 µM
# [36] = second compound 0.3 µM, first compound 10 µM
# 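Also: spheroids exposed to compounds for 7 days before readout.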
# 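For viability, T/C in this document: 100% = DMSO vehicle control viability.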
smiles,measurement,setting,value
CC1(O)CCCC1n1c(=O)c(C(F)F)cc2cnc(NC3CCN(S(C)(=O)=O)CC3)nc21 (stereo unspecified) + CCn1c(-c2cccnc2C(C)OC)c2c3cc(ccc31)N1CCOC(CC(NC(=O)C(C(C)C)N(C)C(=O)C3(F)CCN(C(=O)C#CC(C)(C)N(C)C)CC3)C(=O)N3CCCC(N3)C(=O)OCC(C)(C)C2)C1,IC50,second compound 0.000949 µM,< 31.6 nM
same,IC50,second compound 0.003 µM,< 31.6 nM
same,IC50,second compound 0.00949 µM,< 31.6 nM
same,IC50,second compound 0.03 µM,< 31.6 nM
same,IC50,second compound 0.0949 µM,< 31.6 nM
same,IC50,second compound 0.3 µM,< 31.6 nM
same,"viability, T/C",[1],22.3%
same,"viability, T/C",[2],23.9%
same,"viability, T/C",[3],24.1%
same,"viability, T/C",[4],24.3%
same,"viability, T/C",[5],26%
same,"viability, T/C",[6],29.7%
same,"viability, T/C",[7],24%
same,"viability, T/C",[8],20.8%
same,"viability, T/C",[9],24.2%
same,"viability, T/C",[10],25.1%
same,"viability, T/C",[11],24.6%
same,"viability, T/C",[12],30.1%
same,"viability, T/C",[13],21.4%
same,"viability, T/C",[14],26.1%
same,"viability, T/C",[15],21.9%
same,"viability, T/C",[16],24.4%
same,"viability, T/C",[17],22.6%
same,"viability, T/C",[18],30.1%
same,"viability, T/C",[19],23.1%
same,"viability, T/C",[20],23%
same,"viability, T/C",[21],23.6%
same,"viability, T/C",[22],27.4%
same,"viability, T/C",[23],20.1%
same,"viability, T/C",[24],31%
same,"viability, T/C",[25],21.5%
same,"viability, T/C",[26],22.3%
same,"viability, T/C",[27],26.5%
same,"viability, T/C",[28],27.9%
same,"viability, T/C",[29],17.9%
same,"viability, T/C",[30],28.8%
same,"viability, T/C",[31],22.5%
same,"viability, T/C",[32],23.4%
same,"viability, T/C",[33],23%
same,"viability, T/C",[34],26.1%
same,"viability, T/C",[35],20.8%
same,"viability, T/C",[36],25.9%
CCC(CC)c1cc(NC2CCC(N)C2)n2nccc2n1 (stereo unspecified) + CCn1c(-c2cccnc2C(C)OC)c2c3cc(ccc31)N1CCOC(CC(NC(=O)C(C(C)C)N(C)C(=O)C3(F)CCN(C(=O)C#CC(C)(C)N(C)C)CC3)C(=O)N3CCCC(N3)C(=O)OCC(C)(C)C2)C1,IC50,second compound 0.000949 µM,< 31.6 nM
same,IC50,second compound 0.003 µM,< 31.6 nM
same,IC50,second compound 0.00949 µM,< 31.6 nM
same,IC50,second compound 0.03 µM,< 31.6 nM
same,IC50,second compound 0.0949 µM,< 31.6 nM
same,IC50,second compound 0.3 µM,< 31.6 nM
same,"viability, T/C",[1],24.2%
same,"viability, T/C",[2],25.9%
same,"viability, T/C",[3],22.9%
same,"viability, T/C",[4],31.1%
same,"viability, T/C",[5],14.9%
same,"viability, T/C",[6],32.4%
same,"viability, T/C",[7],23.2%
same,"viability, T/C",[8],24.3%
same,"viability, T/C",[9],23%
same,"viability, T/C",[10],29.3%
same,"viability, T/C",[11],12.1%
same,"viability, T/C",[12],39%
same,"viability, T/C",[13],25.1%
same,"viability, T/C",[14],23.2%
same,"viability, T/C",[15],24.5%
same,"viability, T/C",[16],31.1%
same,"viability, T/C",[17],13.7%
same,"viability, T/C",[18],40.9%
same,"viability, T/C",[19],23%
same,"viability, T/C",[20],25.1%
same,"viability, T/C",[21],27.3%
same,"viability, T/C",[22],33.5%
same,"viability, T/C",[23],14.6%
same,"viability, T/C",[24],45%
same,"viability, T/C",[25],21.5%
same,"viability, T/C",[26],24.5%
same,"viability, T/C",[27],29%
same,"viability, T/C",[28],32.5%
same,"viability, T/C",[29],16.1%
same,"viability, T/C",[30],48.7%
same,"viability, T/C",[31],23.3%
same,"viability, T/C",[32],26.9%
same,"viability, T/C",[33],31.1%
same,"viability, T/C",[34],33.1%
same,"viability, T/C",[35],13.1%
same,"viability, T/C",[36],44.8%
CCN1CCN(Cc2ccc(Nc3ncc(F)c(-c4cc(F)c5nc(C)n(C(C)C)c5c4)n3)nc2)CC1 + CCn1c(-c2cccnc2C(C)OC)c2c3cc(ccc31)N1CCOC(CC(NC(=O)C(C(C)C)N(C)C(=O)C3(F)CCN(C(=O)C#CC(C)(C)N(C)C)CC3)C(=O)N3CCCC(N3)C(=O)OCC(C)(C)C2)C1,IC50,second compound 0.000949 µM,< 3.16 nM
same,IC50,second compound 0.003 µM,< 3.16 nM
same,IC50,second compound 0.00949 µM,< 3.16 nM
same,IC50,second compound 0.03 µM,< 3.16 nM
same,IC50,second compound 0.0949 µM,< 3.16 nM
same,IC50,second compound 0.3 µM,< 3.16 nM
same,"viability, T/C","second compound 0.000949 µM, first compound 0.00316 µM",22.2%
same,"viability, T/C","second compound 0.000949 µM, first compound 0.01 µM",23.4%
same,"viability, T/C",[1],16.8%
same,"viability, T/C",[2],16.1%
same,"viability, T/C",[3],16.6%
same,"viability, T/C",[4],12.2%
same,"viability, T/C","second compound 0.003 µM, first compound 0.00316 µM",22.9%
same,"viability, T/C","second compound 0.003 µM, first compound 0.01 µM",19.3%
same,"viability, T/C",[7],17.4%
same,"viability, T/C",[8],19.3%
same,"viability, T/C",[9],17.3%
same,"viability, T/C",[10],11.3%
same,"viability, T/C","second compound 0.00949 µM, first compound 0.00316 µM",21.3%
same,"viability, T/C","second compound 0.00949 µM, first compound 0.01 µM",21.9%
same,"viability, T/C",[13],19.8%
same,"viability, T/C",[14],17.7%
same,"viability, T/C",[15],15.8%
same,"viability, T/C",[16],12.9%
same,"viability, T/C","second compound 0.03 µM, first compound 0.00316 µM",24.5%
same,"viability, T/C","second compound 0.03 µM, first compound 0.01 µM",21.8%
same,"viability, T/C",[19],18%
same,"viability, T/C",[20],19.2%
same,"viability, T/C",[21],13.6%
same,"viability, T/C",[22],17.5%
same,"viability, T/C","second compound 0.0949 µM, first compound 0.00316 µM",21.9%
same,"viability, T/C","second compound 0.0949 µM, first compound 0.01 µM",23.3%
same,"viability, T/C",[25],19.8%
same,"viability, T/C",[26],16.3%
same,"viability, T/C",[27],11.7%
same,"viability, T/C",[28],15.8%
same,"viability, T/C","second compound 0.3 µM, first compound 0.00316 µM",21.2%
same,"viability, T/C","second compound 0.3 µM, first compound 0.01 µM",21.9%
same,"viability, T/C",[31],21.3%
same,"viability, T/C",[32],16.3%
same,"viability, T/C",[33],16%
same,"viability, T/C",[34],17.9%
